{
  "source": "patent US9011863B2",
  "about": "“Combinations of kinase inhibitors for the treatment of cancer” (Exelixis, Inc., priority 2010, dated 2015)",
  "key": {"[1]": {"system": "HER3 mRNA", "conditions": "ovarian cancer cells; cited from earlier work"}, "[2]": {"system": "HER3 mRNA", "assay": "real-time qPCR of HER3 mRNA", "format": "cell-based, human", "conditions": "for HER3 mRNA/protein or pHER3: data not shown", "experimental": "FIG. 12B depicts a bar chart of timed HER3 mRNA transcription in BT474 cells which were treated with 2 μM 5J8, 20 μM LY294002, and 50 nM rapamycin for 10 hours prior to RNA isolation and qPCR analysis with HER3-specific primers."}, "[3]": {"system": "BT474 xenografts", "assay": "BT474 xenograft experiments", "format": "in vivo, mice", "conditions": "trastuzumab 30 mg/kg twice-a-week i.p.; lapatinib 100 mg/kg daily; compound A 100 mg/kg daily gavage; 28 days"}, "[4]": {"system": "HER3, pHER3^Y1289, pAKT^S473", "assay": "immunohistochemistry of BT474 xenografts", "format": "in vivo, mice", "conditions": "day 28", "experimental": "FIG. 18B depicts photomicrographs of immunohistochemistry sections from formalin-fixed, paraffin-embedded tumor blocks. Xenografts were harvested on day 28, 1 hour after the last dose of lapatinib and/or compound A. Antibodies used were against HER3, pHER3^Y1289, and pAKT^S473. Photographs were taken at 400× magnification (scale bar: 50 μm).\nAll tumor samples (collected within 1 hour of last treatment) were fixed in 10% neutral buffered formalin for 24 hours at room temperature, followed by dehydration and paraffin embedding. Immunostaining was done on 5-μm tissue sections. After deparaffinization in xylene and graded alcohols heat-induced antigen retrieval was performed in a pH 6.0 citrate buffer followed by incubation with 3% hydrogen peroxide for 20 minutes, with protein block (Dako) for 10 minutes, and finally with primary antibody overnight at 4° C. The Envision Visualization System (Dako, Carpinteria, Calif., USA) was used, followed by DAB as chromagen and counterstained with hematoxylin. Tumor sections were studied on a light microscope with an ocular magnification of 400 times. Average percentage and intensity of tumor cell staining was calculated as a histoscore (H-score) (as described in Goulding, H., et al. (1995), Hum. Pathol. 26:291-294, which is incorporated herein by reference in its entirety). An expert pathologist (MGK) scoring the sections was blinded to the type of treatment.\nUsing immunohistochemistry (IHC), experiments were performed to examine pharmacodynamic biomarkers of target inactivation in xenografts after 28 days of treatment. […] Therefore, experiments were performed to quantify differences in pAKT^S473 expression in both cytoplasmic and nuclear compartments in xenograft sections."}},
  "data": [
    {"smiles": "CS(=O)(=O)N1CCN(Cc2cc3nc(-c4cccc5[nH]ncc45)nc(N4CCOCC4)c3s2)CC1", "note": "[GDC-0941]", "values": [
      {"measurement": "HER3 mRNA downregulation by heregulin", "setting": "[1]", "value": "blocked downregulation of the HER3 mRNA"}
    ]},
    {"smiles": "CO[C@H]1C[C@@H]2CC[C@@H](C)[C@@](O)(O2)C(=O)C(=O)N2CCCC[C@H]2C(=O)O[C@H]([C@H](C)C[C@@H]2CC[C@@H](OCCO)[C@H](OC)C2)CC(=O)[C@H](C)/C=C(\\C)[C@@H](O)[C@@H](OC)C(=O)[C@H](C)C[C@H](C)/C=C/C=C/C=C/1C", "note": "[RAD001, everolimus]", "values": [
      {"measurement": "HER3 mRNA/protein or pHER3", "setting": "[2]", "value": "did not upregulate HER3 mRNA/protein or pHER3"}
    ]},
    {"smiles": "O=C(NOCC1CC1)c1ccc(F)c(F)c1Nc1ccc(I)cc1Cl", "note": "[CI-1040]", "values": [
      {"measurement": "HER3 mRNA/protein or pHER3", "setting": "[2]", "value": "did not upregulate HER3 mRNA/protein or pHER3"}
    ]},
    {"smiles": "CS(=O)(=O)CCNCc1ccc(-c2ccc3ncnc(Nc4ccc(OCc5cccc(F)c5)c(Cl)c4)c3c2)o1", "note": "[lapatinib, reference compound]", "values": [
      {"measurement": "tumor growth, monotherapy", "setting": "[3]", "value": "significantly delayed tumor growth"},
      {"measurement": "pHER3 by IHC", "setting": "[4]", "value": "more effective than trastuzumab in reducing pHER3"},
      {"measurement": "HER3 mRNA levels", "setting": "[2]; BT474, compound A 6 μM, lapatinib 1 μM, trastuzumab 10 μg/ml, 10 hours", "value": "markedly induced HER3 mRNA"}
    ]}
  ]
}
